Patent publication US20250102414A1, “A MICROFLUIDIC DEVICE FOR DETECTING AND CHARACTERIZING AT LEAST ONE ANALYTE, FOR EXAMPLE A CELL, IN A SAMPLE FLUID” (TECHNISCHE UNIVERSITEIT EINDHOVEN, priority 2022, published 2025)

How the values were obtained:
MCF-7 cells [1] = assay: Label-free drug response analysis by electrical impedance (opacity) with the microfluidic device; format: cell-based; conditions: 1 μM STS, cultured 3 days under drug exposure, opacity clusters
Experimental: FIGS. 14a and 14b show the results of a drug response analysis for MCF-7 cells. As a first step, the viability of the cells was measured before and after analyzing these cells using one of the versions of the devices described in the present disclosure. […] Then, STS (with 1 μM concentration) were added to this well and the cells were cultured for another 3 days under the exposure of the drug.
(§1) In parallel, a control sample was also cultured under the same conditions without drug exposure was also analyzed for comparison. […] For the control sample, only one cluster, which were viable cells, were identified with 97% ratio for the total number of events. For the treated sample, 3 clusters were identified for viable, early apoptotic, and late apoptotic states with 44%, 19%, and 37% ratios, respectively. For validation, a commercially available apoptosis detection kit for fluorescent imaging were used and it provided the ratios of 47% viable and 53% apoptotic for the treated sample. A high-resolution drug response analysis were performed in a fully label free manner while keeping the cells intact, where the imaging required sample preparation and fixation of the cells, which kills the cells and the possibility of further functional analysis options.
Accordingly, embodiments of the present disclosure are capable of achieving measurement results when the electric field generating unit in the embodiments of the present disclosure delivers a voltage drop between electrodes of the present disclosure within the range of 0.1 to 0.5 V and, preferably, within the range of 0.2 to 0.4 V. The results shown in FIGS. 12, 13 and 14 were obtained with voltage values varying between 0.2-0.4 V for frequencies between 1-400 MHz with the maximum reachable voltage drop of 0.12 V, which is below the electroporation limit. […] These to be determined based on the sample, used electrolyte (medium conductivity), peripheral electronics (analyzers, power sources, etc.), size of the measurement volume, and the requirements of the analysis.

MCF-7 cells [2] = assay: Commercially available apoptosis detection kit for fluorescent imaging (validation); format: cell-based; conditions: 1 μM STS, 3 days
Experimental: as §1

CN[C@@H]1C[C@H]2O[C@@](C)([C@@H]1OC)n1c3ccccc3c3c4c(c5c6ccccc6n2c5c31)C(=O)NC4 [STS]
ratio of early apoptotic cluster to total number of events (MCF-7 cells [1]): 19% | ratio of late apoptotic cluster to total number of events (MCF-7 cells [1]): 37% | ratio of viable cluster to total number of events (MCF-7 cells [1]): 44% | ratio apoptotic (MCF-7 cells [2]): 53% | ratio viable (MCF-7 cells [2]): 47%
